Assay results as given in the supplement of paper PMC11208160.

Experiment: recombinant barcode read abundance after kanamycin selection (control-corrected) (log10(CPM+1)); higher = more efficient recombination; sequences stand for … in AGTGCAGAGAAAATCGGCCAGTTTTCTCTGCCTGCAGTCCGCATGCCGT…AGATTTATGCAGCGGACTGCCTTTCTCCCAAAGTGATAAACCGGACAGTATCATGGACCGGTTTTCCCGGTAATCCGTATTTGCAAGGTTGGTTTCACT; site = the 11-nt target
Experimental: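 Pooled E. coli target-specificity screen for the IS621 bridge recombinase. Each library plasmid pairs an 11-nt target (CT core) with a bridge RNA whose target-binding loop (9-nt LTG + 4-nt RTG) is reprogrammed; the rest of the 177-nt WT IS621 bridge RNA scaffold is fixed. The plasmid is co-electroporated with a WT donor plasmid; recombinase is induced with 0.1 mM IPTG and recombinants are selected on kanamycin. Recombinant barcodes are sequenced, converted to CPM, averaged over two biological replicates and corrected by the unselected control CPM. Molecule = full bridge RNA written as DNA: LTG = specificity nt 1-9, RTG = reverse complement of specificity nt 8-11, in the WT scaffold.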
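Further: IS621 recombinase and bridge RNA in Escherichia coli cells.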

Sequence	recombinant barcode read abundance (log10)
ACCCATTCTTGGGTTCTAACCTGTTGCGT (site ACCCATTCTAC)	2.29
ACCCATTCTTGGGTTCTAACCTGTTGCGT (site TAGATAACTCA)	0.0317
ACCCCTCCTTGGGTTCTAACCTGTTGCCA (site ACCCCTCCTTG)	1.4
ACCCCTCCTTGGGTTCTAACCTGTTGCCA (site ACGCCTCCTTG)	0.228
ACCCTAACTTGGGTTCTAACCTGTTGCCG (site ACCCTAACTCG)	2.03
ACCCTAACTTGGGTTCTAACCTGTTGCCG (site ACCCTATCTAG)	0.129
ACCCTGGCTTGGGTTCTAACCTGTTGCCT (site ACACTGGCTAG)	0.0738
ACCCTGGCTTGGGTTCTAACCTGTTGCCT (site ACCCTGGCTAG)	0.816
ACCCTGGCTTGGGTTCTAACCTGTTGCCT (site ACGCTGGCTAG)	0.326
ACCCTGGCTTGGGTTCTAACCTGTTGCCT (site ACTCTGGCTAG)	0.205
ACCGACCCTTGGGTTCTAACCTGTTGCCG (site ACCGACCCTCG)	1.47
ACCGACCCTTGGGTTCTAACCTGTTGCCG (site ACCGTCCCTCG)	0.105
ACCGATTCTTGGGTTCTAACCTGTTGCAT (site ACCGATTCTAT)	0.696
ACCGATTCTTGGGTTCTAACCTGTTGCAT (site GCCGATTCTAG)	0.331
ACCGTCCCTTGGGTTCTAACCTGTTGCCG (site ACCGACCCTCG)	0.0364
ACCGTCCCTTGGGTTCTAACCTGTTGCCG (site ACCGTCCCTCG)	0.107
ACCTCAACTTGGGTTCTAACCTGTTGCCT (site ACATCAACTAG)	0.0721
ACCTCAACTTGGGTTCTAACCTGTTGCCT (site ACCTCAACTAG)	0.19
ACCTCAACTTGGGTTCTAACCTGTTGCCT (site ACGTCAACTAG)	0.188
ACCTCAACTTGGGTTCTAACCTGTTGCCT (site ACTTCAACTAG)	0.215
ACCTCTTCTTGGGTTCTAACCTGTTGCTA (site ACCTCTTCTTA)	0.141
ACCTCTTCTTGGGTTCTAACCTGTTGCTA (site CGTCGACCTAT)	0.204

Sequence	recombinant barcode read abundance (log10)
ACCTGACCTTGGGTTCTAACCTGTTGCCT (site ACCTGACCTAG)	1.31
ACCTGACCTTGGGTTCTAACCTGTTGCCT (site ACCTGCCCTAG)	0.0303
ACCTGACCTTGGGTTCTAACCTGTTGCCT (site ACCTGGCCTAG)	0.1
ACCTGACCTTGGGTTCTAACCTGTTGCCT (site ACCTGTCCTAG)	0.0737
ACCTGGCCTTGGGTTCTAACCTGTTGCCT (site ACCTGACCTAG)	0.165
ACCTGGCCTTGGGTTCTAACCTGTTGCCT (site ACCTGCCCTAG)	0.147
ACCTGGCCTTGGGTTCTAACCTGTTGCCT (site ACCTGGCCTAG)	0.412
ACCTGGCCTTGGGTTCTAACCTGTTGCCT (site ACCTGTCCTAG)	0.247
ACCTGGGCTTGGGTTCTAACCTGTTGCCT (site AACTGGGCTAG)	0.0365
ACCTGGGCTTGGGTTCTAACCTGTTGCCT (site ACCTGGGCTAG)	0.0605
ACCTGGGCTTGGGTTCTAACCTGTTGCCT (site AGCTGGGCTAG)	0
ACCTGGGCTTGGGTTCTAACCTGTTGCCT (site ATCTGGGCTAG)	0.12
ACCTTACCTTGGGTTCTAACCTGTTGCGG (site ACCTTACCTAC)	0.37
ACCTTACCTTGGGTTCTAACCTGTTGCGG (site ACCTTACCTCC)	0.617
ACCTTACCTTGGGTTCTAACCTGTTGCGT (site ACCTTACCTAC)	1.97
ACCTTACCTTGGGTTCTAACCTGTTGCGT (site ACCTTACCTCC)	0.504
ACGAAGGCTTGGGTTCTAACCTGTTGCCG (site ACGAAGGCTAG)	0.182
ACGAAGGCTTGGGTTCTAACCTGTTGCCG (site ACGAAGGCTCG)	0.691
ACGACCGCTTGGGTTCTAACCTGTTGCCT (site ACGAACGCTAG)	0.571
ACGACCGCTTGGGTTCTAACCTGTTGCCT (site ACGACCGCTAG)	0.804
ACGACCGCTTGGGTTCTAACCTGTTGCCT (site ACGAGCGCTAG)	0.119
ACGACCGCTTGGGTTCTAACCTGTTGCCT (site ACGATCGCTAG)	0.245

Sequence	recombinant barcode read abundance (log10)
ACGACTACTTGGGTTCTAACCTGTTGCCT (site ACGACTACTAG)	0.128
ACGACTACTTGGGTTCTAACCTGTTGCCT (site ACGACTCCTAG)	0.00963
ACGACTACTTGGGTTCTAACCTGTTGCCT (site ACGACTGCTAG)	0.113
ACGACTACTTGGGTTCTAACCTGTTGCCT (site ACGACTTCTAG)	0.048
ACGACTGCTTGGGTTCTAACCTGTTGCCT (site ACGACTACTAG)	0.166
ACGACTGCTTGGGTTCTAACCTGTTGCCT (site ACGACTCCTAG)	0.163
ACGACTGCTTGGGTTCTAACCTGTTGCCT (site ACGACTGCTAG)	0.738
ACGACTGCTTGGGTTCTAACCTGTTGCCT (site ACGACTTCTAG)	0.247
ACGAGAGCTTGGGTTCTAACCTGTTGCCT (site ACAAGAGCTAG)	0.92
ACGAGAGCTTGGGTTCTAACCTGTTGCCT (site ACCAGAGCTAG)	0.0692
ACGAGAGCTTGGGTTCTAACCTGTTGCCT (site ACGAGAGCTAG)	1.11
ACGAGAGCTTGGGTTCTAACCTGTTGCCT (site ACTAGAGCTAG)	0.135
ACGAGCCCTTGGGTTCTAACCTGTTGCCA (site ACGAGCCCTTG)	0.666
ACGAGCCCTTGGGTTCTAACCTGTTGCCA (site ACGCACCCTTG)	0.151
ACGAGGACTTGGGTTCTAACCTGTTGCCG (site ACGAAGACTCG)	0.232
ACGAGGACTTGGGTTCTAACCTGTTGCCG (site ACGAGGACTCG)	1.09
ACGAGTACTTGGGTTCTAACCTGTTGCGG (site ACGAGTACTCA)	0.392
ACGAGTACTTGGGTTCTAACCTGTTGCGG (site ACGAGTACTCC)	1.82
ACGATTCCTTGGGTTCTAACCTGTTGCTT (site ACGAATCCTAA)	0.0108
ACGATTCCTTGGGTTCTAACCTGTTGCTT (site ACGACTCCTAA)	0.142
ACGATTCCTTGGGTTCTAACCTGTTGCTT (site ACGAGTCCTAA)	0.0586
ACGATTCCTTGGGTTCTAACCTGTTGCTT (site ACGATTCCTAA)	0.0242
